PMC4244111, “Structure of Putrescine Aminotransferase from Escherichia coli Provides Insights into the Substrate Specificity among Class III Aminotransferases” (PLoS ONE, 2014)

Biological target: T1, YgjG (Escherichia coli, UniProt P42588)
T1 construct: gene patA; full-length, C-terminal His6 tag, expressed in E. coli B834(DE3); homodimer; seven N-terminal and one C-terminal residues not visible
Test: X-ray crystallography, […] Å
Format: binding
Conditions: crystal pH 7.5; covalent, Schiff base with Lys300; active site at dimer interface

T1 sequence (P42588 whole entry): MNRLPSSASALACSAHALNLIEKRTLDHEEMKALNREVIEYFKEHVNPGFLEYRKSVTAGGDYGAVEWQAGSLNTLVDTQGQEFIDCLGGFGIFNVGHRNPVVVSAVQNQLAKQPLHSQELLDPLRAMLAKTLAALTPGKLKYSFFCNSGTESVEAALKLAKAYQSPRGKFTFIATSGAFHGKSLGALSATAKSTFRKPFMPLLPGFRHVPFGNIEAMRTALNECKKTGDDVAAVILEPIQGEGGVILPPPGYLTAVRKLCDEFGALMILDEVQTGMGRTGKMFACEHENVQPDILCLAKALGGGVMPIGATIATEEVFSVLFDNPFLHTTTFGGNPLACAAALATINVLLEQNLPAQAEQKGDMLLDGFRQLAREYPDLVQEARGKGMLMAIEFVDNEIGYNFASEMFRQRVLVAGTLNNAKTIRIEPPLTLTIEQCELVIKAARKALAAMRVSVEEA

Question: With Cc1ncc(COP(=O)(O)O)c(C=O)c1O [pyridoxal-5′-phosphate] as the compound, how does the “X-ray crystallography, 2.3 Å” value read?
Answer: PLP is covalently linked to the strictly conserved lysine residue (Lys300) via a Schiff base linkage
